Measurements as given in patent publication US20250122155A1, “NOVEL INDOLE DERIVATIVE, PHARMACEUTICAL COMPOSITION COMPRISING SAME, AND USE THEREOF” (MITOIMMUNE THERAPEUTICS INC., priority 2021, published 2025).

These molecules were tested on H9C2 cells (assay: Protective effect on heart cells against t-BHP (LDH release)). Conditions: H9C2, t-BHP 400 μM, 2 hours, read-out: EC50 (μM), Cell Protection Effect against t-BHP in Heart Cells.
Format: cell-based
Description: In order to identify the protective effect with regard to heart cells, H9C2 cells were divided into 96-well plates by 1.5×10^4, and cultured for 24 hours. The respective wells were treated with compounds of the examples 3× serial diluted to final concentrations of 30, 10, 3, 1, 0.3, 0.1, 0.03 and 0.01 μM, then incubated for 15 to 20 minutes. After treating with t-BHP with a final concentration of 400 μM, incubation was performed for 2 hours. To confirm the protective effect of each compound, a Cytotoxicity LDH assay kit [Dojindo; CK12] was used to measure the degree of extracellular secretion of LDH. After 2-hour treatment of the cells with t-BHP was completed, 100 μL each of the supernatant in which the cells were placed was collected and moved to a new 96-well plate. 100 μL/well of the assay buffer included in the kit (same amount as the sample) was added, followed by wrapping with foil and reacting for 30 minutes at room temperature. Observing the change of color in the sample, 50 μL/well of stop solution was added, then an iD3 spectrometer was used to measure absorbance at 490 nm and calculate the EC50 values. The EC50 of the compounds of the examples is preferably no more than 1.0 μM, and more preferably no more than 0.3 μM.

EC50 [µM]	SMILES
≤ 0.3	COCCOCc1cc(NC2CCC(O)CC2)c2[nH]c(-c3ccccc3)cc2c1 (single isomer, unassigned) [Example 69-1, 4-((5-((2-methoxyethoxy)methyl)-2-phenyl-1H-indol-7-yl)amino)cyclohexan-1-ol]
≤ 0.3	COCCOCc1cc(NC2CCC(O)CC2)c2[nH]c(-c3ccccc3)cc2c1 (single isomer, unassigned) [Example 69-2, 4-((5-((2-methoxyethoxy)methyl)-2-phenyl-1H-indol-7-yl)amino)cyclohexan-1-ol]
≤ 0.3	COCCOCc1cc(NC2CCC(C)(O)CC2)c2[nH]c(-c3ccccc3)cc2c1 (single isomer, unassigned) [Example 70-1, 4-((5-((2-methoxyethoxy)methyl)-2-phenyl-1H-indol-7-yl)amino)-1-methylcyclohexane-1-ol]
≤ 0.3	COCCOCc1cc(NC2CCC(C)(O)CC2)c2[nH]c(-c3ccccc3)cc2c1 (single isomer, unassigned) [Example 70-2, 4-((5-((2-methoxyethoxy)methyl)-2-phenyl-1H-indol-7-yl)amino)-1-methylcyclohexane-1-ol]
≤ 0.3	COCCOCc1cc(N(C2CCCC2)C2CCCC2)c2[nH]c(-c3ccccc3)cc2c1 [Example 3, N,N-dicyclopentyl-5-(2-methoxyethoxymethyl)-2-phenyl-1H-indol-7-amine]
> 1	COCCOCc1cc(N2CCOCC2)c2[nH]c(-c3ccccc3)cc2c1 [Example 5, 4-[5-(2-methoxyethoxymethyl)-2-phenyl-1H-indol-7-yl]morpholine]
≤ 0.3	COCCOCc1cc(NC2CCOC2)c2[nH]c(-c3ccccc3)cc2c1 (stereo not shown) [Example 6, 5-(2-methoxyethoxymethyl)-2-phenyl-N-tetrahydrofuran-3-yl-1H-indol-7-amine]
≤ 0.3	COCCOCc1cc(NC2COC2)c2[nH]c(-c3ccccc3)cc2c1 [Example 7, 5(2-methoxyethoxymethyl)-N-(oxetane-3-yl)-2-phenyl-1H-indol-7-amine]
≤ 0.3	COCCOCc1cc(NC2CCC2)c2[nH]c(-c3ccccc3)cc2c1 [Example 8, N-cyclobutyl-5-(2-methoxyethoxymethyl)-2-phenyl-1H-indol-7-amine]
≤ 0.3	COCCOCc1cc(N(C2CCC2)C2CCC2)c2[nH]c(-c3ccccc3)cc2c1 [Example 9, N,N-dicyclobutyl-5-(2-methoxyethoxymethyl)-2-phenyl-1H-indol-7-amine]
0.3 to 1	COCCOCc1cc(NC2CCC2)c2c(c1)cc(-c1ccccc1)n2C [Example 10, N-cyclobutyl-5-(2-methoxyethoxymethyl)-1-methyl-2-phenyl-indol-7-amine]
≤ 0.3	COCCOCc1cc(NCC(C)(C)C)c2[nH]c(-c3ccccc3)cc2c1 [Example 11, N-(2,2-dimethylpropyl)-5-(2-methoxyethoxymethyl)-2-phenyl-1H-indol-7-amine]
≤ 0.3	COCCOCc1cc(NCC2CCCC2)c2[nH]c(-c3ccccc3)cc2c1 [Example 12, N-(cyclopentylmethyl)-5-(2-methoxyethoxymethyl)-2-phenyl-1H-indol-7-amine]
≤ 0.3	COCCOCc1cc(NC2CCCCC2)c2[nH]c(-c3ccccc3)cc2c1 [Example 13, N-cyclohexyl-5-(2-methoxyethoxymethyl)-2-phenyl-1H-indol-7-amine]
≤ 0.3	COCCOCc1cc(NC2CCC(F)(F)CC2)c2[nH]c(-c3ccccc3)cc2c1 [Example 14, N-(4,4-difluorocyclohexyl)-5-(2-methoxyethoxymethyl)2-phenyl-1H-indol-7-amine]
≤ 0.3	COCCOCc1cc(NCC(C)C)c2[nH]c(-c3ccccc3)cc2c1 [Example 15, N-isobutyl-5-(2-methoxyethoxymethyl)-2-phenyl-1H-indol-7-amine]
≤ 0.3	CCCNc1cc(COCCOC)cc2cc(-c3ccccc3)[nH]c12 [Example 16, 5-(2-methoxyethoxymethyl)-2-phenyl-N-propyl-1H-indol-7-amine]
≤ 0.3	CCCCNc1cc(COCCOC)cc2cc(-c3ccccc3)[nH]c12 [Example 17, N-butyl-5-(2-methoxyethoxymethyl)-2-phenyl-1H-indol-7-amine]
≤ 0.3	CCC(CC)CNc1cc(COCCOC)cc2cc(-c3ccccc3)[nH]c12 [Example 18, N-(2-ethylbutyl)-5-(2-methoxyethoxymethyl)-2-phenyl-1H-indol-7-amine]
≤ 0.3	COCCOCc1cc(NCCC(C)C)c2[nH]c(-c3ccccc3)cc2c1 [Example 19, N-isopentyl-5-(2-methoxyethoxymethyl)-2-phenyl-1H-indol-7-amine]

EC50 [µM]	SMILES
≤ 0.3	CCC(C)Nc1cc(COCCOC)cc2cc(-c3ccccc3)[nH]c12 (stereo not shown) [Example 20, 5-(2(methoxyethoxymethyl)-2-phenyl)-N-sec-butyl-1H-indol-7-amine]
≤ 0.3	COCCOCc1cc(NCC2CC2)c2[nH]c(-c3ccccc3)cc2c1 [Example 21]
≤ 0.3	CCCC(C)Nc1cc(COCCOC)cc2cc(-c3ccccc3)[nH]c12 (stereo not shown) [Example 22, 5-(2-methoxyethoxymethyl)-N-(1-methylbutyl)-2-phenyl-1H-indol-7-amine]
≤ 0.3	CCC(CC)Nc1cc(COCCOC)cc2cc(-c3ccccc3)[nH]c12 [Example 23, N-(1-ethylpropyl)-5-(2-methoxyethoxymethyl)-2-phenyl-1H-indol-7-amine]
≤ 0.3	COCCOCc1cc(/N=C(/C)C(F)(F)F)c2[nH]c(-c3ccccc3)cc2c1 [Example 24, (E,Z)-1,1,1-trifluoro-N-[5-(2-methoxyethoxymethyl)-2-phenyl-1H-indol-7-yl]propane-2-imine]
≤ 0.3	COCCOCc1cc(NC(C)C(F)(F)F)c2[nH]c(-c3ccccc3)cc2c1 (stereo not shown) [Example 25, 5-(2-methoxyethoxymethyl)-2-phenyl-N-(2,2,2-trifluoro-1-methyl-ethyl)-1H-indol-7-amine]
≤ 0.3	COCCOCc1cc(NC(C)C(C)C)c2[nH]c(-c3ccccc3)cc2c1 (stereo not shown) [Example 26, N-(1,2-dimethylpropyl)-5-(2-methoxyethoxymethyl)-2-phenyl-1H-indol-7-amine]
≤ 0.3	COCCOCc1cc(NC(C)C)c2[nH]c(-c3ccccc3)cc2c1 [Example 27, N-isopropyl-5-(2-methoxyethoxymethyl)-2-phenyl-1H-indol-7-amine]
≤ 0.3	COCCOCc1cc(NCc2ccccc2)c2[nH]c(-c3ccccc3)cc2c1 [Example 28, N-benzyl-5-(2-methoxyethoxymethyl)-2-phenyl-1H-indol-7-amine]
≤ 0.3	COCCOCc1cc(NC2CCN(C(=O)OC(C)(C)C)CC2)c2[nH]c(-c3ccccc3)cc2c1 [Example 29, tert-butyl 4-[[5-(2-methoxyethoxymethyl)-2-phenyl-1H-indol-7-yl]amino]piperidine-1-carboxylate]
≤ 0.3	COCCOCc1cc(NC2CCN(S(C)(=O)=O)CC2)c2[nH]c(-c3ccccc3)cc2c1 [Example 31, 5-(2-methoxyethoxymethyl)-N-(1-methylsulfonyl-4-piperidyl)-2-phenyl-1H-indol-7-amine]
≤ 0.3	COCCOCc1cc(NC2CCS(=O)(=O)CC2)c2[nH]c(-c3ccccc3)cc2c1 [Example 32, N-(1,1-dioxothian-4-yl)-5-(2-methoxyethoxymethyl)-2-phenyl-1H-indol-7-amine]
≤ 0.3	COCCOCc1cc(NC2CC[S+]([O-])CC2)c2[nH]c(-c3ccccc3)cc2c1 (stereo not shown) [Example 33, 5-(2-methoxyethoxymethyl)-N-(1-oxothian-4-yl)-2-phenyl-1H-indol-7-amine]
≤ 0.3	COCCOCc1cc(NC2CCN(C)CC2)c2[nH]c(-c3ccccc3)cc2c1 [Example 34, 5-(2-methoxyethoxymethyl)-N-(1-methyl-4-piperidyl)-2-phenyl-1H-indol-7-amine]
≤ 0.3	CCOCCOCc1cc(NC2CCOCC2)c2[nH]c(-c3ccccc3)cc2c1 [Example 35, 5-(2-ethoxyethoxymethyl)-2-phenyl-N-tetrahydropyran-4-yl-1H-indol-7-amine]
≤ 0.3	CC(C)OCCOCc1cc(NC2CCCC2)c2[nH]c(-c3ccccc3)cc2c1 [Example 37, N-cyclopentyl-5-(2-isopropoxyethoxymethyl)-2-phenyl-1H-indol-7-amine]
≤ 0.3	CC(C)OCCOCc1cc(NC2CCOCC2)c2[nH]c(-c3ccccc3)cc2c1 [Example 38, 5-(2-isopropoxyethoxymethyl)-2-phenyl-Ntetrahydropyran-4-yl-1H-indol-7-amine]
0.3 to 1	COCCOCCOCc1cc(NC2CCOCC2)c2[nH]c(-c3ccccc3)cc2c1 [Example 40, 5-[2-(2-methoxyethoxy)ethoxymethyl]-2-phenyl-N-tetrahydropyran-4-yl-1H-indol-7-amine]
> 1	COCCOCc1cc(NC2CCN(C(=O)Nc3cc(C(F)(F)F)cc(C(F)(F)F)c3)CC2)c2[nH]c(-c3ccccc3)cc2c1 [Example 41, N-[3,5-bis(trifluoromethyl)phenyl]-4-[[5-(2-methoxyethoxymethyl)-2-phenyl-1H-indol-7-yl]amino]piperidine-1-carboxamide]
0.3 to 1	COCCOCc1cc(NC2CCN(C(=O)Nc3cc(Cl)cc(Cl)c3)CC2)c2[nH]c(-c3ccccc3)cc2c1 [Example 42, N-(3,5-dichlorophenyl)-4-[[5-(2-methoxyethoxymethyl)-2-phenyl-1H-indol-7-yl]amino]piperidine-1-carboxamide]
